This note sets out measurements from patent US12414955B2 (priority 2020, dated 2025).

Structures are written as SMILES. Several values for one entry are separate records, joined by “and”; a condition that tells them apart may be missing. Identical values can stand only once.

Series [1] deals with SARS CoV-1. Briefly: organism not typed. Format: cell-based, Toronto 2 SARS CoV-1. The conditions noted are these: for average plate ZIP synergy score / maximum ZIP synergy score / concentrations at which synergy was realized: SARS CoV-1 CPE assay.
In series [2] the test system is SARS CoV-2. Kind of series: SARS CoV-2 cytopathic effect (CPE) assay in Vero E6 host cells. The format is cell-based, USA_WA1/2020 SARS CoV-2.
Series [3] has as its system SARS-CoV-2. Briefly: microbe, parasite or virus in culture. The format is cell-based. The note with it: Severe acute respiratory syndrome coronavirus 2, A549, 48 h; read-out: IC50 for inhibition of SARS CoV-2 mediated cell killing.
A short description of series [4]: in vitro. The conditions noted are these: African green monkey.
The nature of series [5]: in vitro. The note with it: African green monkey. The source holds these as a separate data set.
The mark [6] stands for this setting: Compound 1 in combination with hydroxychloroquine (HCQ).
[7] abbreviates: Compound 1 in combination with remdesivir.
The mark [8] stands for this setting: combination of Compound 1 and hydroxychloroquine (HCQ).
The mark [9] stands for this setting: combination of Compound 1 and remdesivir.

For orientation: IC50 means the concentration that gives 50% inhibition.

Take `C[C@@H]1COCCN1c1cc(N2CCCC[C@@H]2C(F)(F)F)[nH]c(=O)c1` [Compound 1]: the “average plate ZIP synergy score” value in series [1] (setting [6]) was 13.413; in series [1] (setting [7]), 8.304; in series [2] it was 5.523 and 8.345. Further, the “maximum ZIP synergy score” value in series [1] (setting [6]) is 37.77; in series [1] (setting [7]), 33.66; in series [2], 32.8 and 40.8. The concentration for half-maximal inhibition (IC50) stood at 650 nM in series [1] (Vero C1008, 72 h, read-out: IC50 for inhibition of SARS CoV-1 mediated cell killing) and 108 nM in series [3]. Moreover, the “concentrations at which synergy was realized” value (“concentrations” for short) in series [1] (setting [8]) and in series [1] (setting [9]) was not above 1.9 µM each time. The CC50 in series [4] and in series [5] was more than 30 µM throughout.
As to `C[C@@H]1COCCN1c1cc(N2CCCC[C@@H]2c2ccccc2)[nH]c(=O)c1` [Compound 2], in series [3], the half-inhibitory concentration (IC50) is 2030 nM. Besides, the CC50 in series [4] and in series [5] was more than 30 µM in each case.
On to `C[C@@H]1COCCN1c1cc(N2CCC[C@@H]2C(F)(F)F)[nH]c(=O)c1` [Compound 3], for which the IC50 in series [3] is more than 30000 nM. Besides, the CC50 in series [4] and in series [5] was more than 30 µM in each case.
Consider `C[C@@H]1COCCN1c1cc(N2CCOC[C@H]2C(F)(F)F)[nH]c(=O)c1` [Compound 4], for which the IC50 in series [3] turned out to be 520 nM. The CC50 in series [4] and in series [5] was more than 30 µM throughout.
In the case of `C[C@@H]1COCCN1c1cc(N2CCOCC23CCC3)[nH]c(=O)c1` [Compound 5], in series [3], the IC50 came to 7730 nM. Moreover, the CC50 in series [4] and in series [5] was more than 10 µM each time.
Consider `CCN(CCO)CCCC(C)Nc1ccnc2cc(Cl)ccc12` (stereo not drawn) [HCQ, hydroxychloroquine, reference compound], for which the “concentrations” value in series [1] (setting [8]) is more than 0.1 µM.
Consider `CCC(CC)COC(=O)[C@H](C)N[P@](=O)(OC[C@H]1O[C@@](C#N)(c2ccc3c(N)ncnn23)[C@H](O)[C@@H]1O)Oc1ccccc1` [Remdesivir, remdesivir, reference compound], for which the results for the “concentrations” value in series [1] (setting [9]) and in series [2] were more than 1.9 µM and “above 0.5 μM”, respectively.
